Laboratory results: patent publication US11117900B2 (Vertex Pharmaceuticals Incorporated, priority 2012, dated 2021)

tested on: HCT116 colorectal cancer cells; experiment: Cisplatin sensitization assay (96 h MTS cell viability); type: cell-based; conditions: Cisplatin sensitization value;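 also: compound concentration needed to lower the IC50 of Cisplatin alone by a set fold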
How it was run: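 HCT116 cells were dosed simultaneously with compound and cisplatin as a full matrix of 2-fold serial dilutions from 10 μM top final concentration. Incubation was 96 h at 37° C., 5% CO2, followed by 1 h with MTS reagent for the viability read-out. Sensitization values were binned into +++, ++ and + categories.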

Q: `Nc1nn2cc(F)cnc2c1C(=O)Nc1cnccc1-c1ccc(C(=O)N2CCN3CCC2CC3)cc1` [I-C-48, N-(4-(4-(1,4-diazabicyclo[3.2.2]nonane-4-carbonyl)phenyl)pyridin-3-yl)-2-amino-6-fluoropyrazolo[1,5-a]pyrimidine-3-carboxamide] was tested. Which “Cisplatin Sensitization Assay” value did it give?
A: +++ (Compounds with a Cisplatin sensitization value of <0.02 μM are marked with “+++.”)

Q: How did the “Cisplatin Sensitization Assay” value turn out when `Nc1nn2cc(F)cnc2c1C(=O)Nc1cnccc1-c1ccc(C(=O)N2CCN(C3COC3)CC2)cc1` [I-C-49, 2-amino-6-fluoro-N-(4-(4-(4-(oxetan-3-yl)piperazine-1-carbonyl)phenyl)pyridin-3-yl)pyrazolo[1,5-a]pyrimidine-3-carboxamide] was run?
A: +++ (Compounds with a Cisplatin sensitization value of <0.02 μM are marked with “+++.”)

Q: With `Nc1nn2cc(F)cnc2c1C(=O)Nc1cnccc1-c1ccc(C(=O)N2CCN3CCC2CC3)cc1F` [I-C-50, N-(4-(4-(1,4-diazabicyclo[3.2.2]nonane-4-carbonyl)-2-fluorophenyl)pyridin-3-yl)-2-amino-6-fluoropyrazolo[1,5-a]pyrimidine-3-carboxamide] as the molecule, how does the “Cisplatin Sensitization Assay” value read?
A: +++ (Compounds with a Cisplatin sensitization value of <0.02 μM are marked with “+++.”)

Q: `Nc1nn2cc(F)cnc2c1C(=O)Nc1cnccc1-c1ccc(C(=O)N2CCN(C3COC3)CC2)cc1F` [I-C-51, 2-amino-6-fluoro-N-(4-(2-fluoro-4-(4-(oxetan-3-yl)piperazine-1-carbonyl)phenyl)pyridin-3-yl)pyrazolo[1,5-a]pyrimidine-3-carboxamide] was tested. Which “Cisplatin Sensitization Assay” value did it give?
A: ++ (Compounds with a Cisplatin sensitization value >0.02 μM but <0.2 μM are marked with “++.”)

Q: With `Nc1nn2cc(F)cnc2c1C(=O)Nc1cnccc1-c1ccc(C(=O)N2CCN(C3COC3)CC2)nc1` [I-C-52, 2-amino-6-fluoro-N-(6-(4-(oxetan-3-yl)piperazine-1-carbonyl)-[3,4′-bipyridin]-3′-yl)pyrazolo[1,5-a]pyrimidine-3-carboxamide] as the molecule, how does the “Cisplatin Sensitization Assay” value read?
A: ++ (Compounds with a Cisplatin sensitization value >0.02 μM but <0.2 μM are marked with “++.”)

Q: For `Nc1nn2cc(F)cnc2c1C(=O)Nc1cnccc1-c1ccc(C(=O)N2CCC(N3CCCC3)CC2)nc1` [I-C-53, 2-amino-6-fluoro-N-(6-(4-(pyrrolidin-1-yl)piperidine-1-carbonyl)-[3,4′-bipyridin]-3′-yl)pyrazolo[1,5-a]pyrimidine-3-carboxamide], which “Cisplatin Sensitization Assay” value is on record?
A: +++ (Compounds with a Cisplatin sensitization value of <0.02 μM are marked with “+++.”)

Q: For `Nc1nn2cc(F)cnc2c1C(=O)Nc1cnccc1-c1ccc(C(=O)N2CCC(N3CCC3)CC2)nc1` [I-C-54, 2-amino-N-(6-(4-(azetidin-1-yl)piperidine-1-carbonyl)-[3,4′-bipyridin]-3′-yl)-6-fluoropyrazolo[1,5-a]pyrimidine-3-carboxamide], which “Cisplatin Sensitization Assay” value is on record?
A: +++ (Compounds with a Cisplatin sensitization value of <0.02 μM are marked with “+++.”)

Q: Which “Cisplatin Sensitization Assay” value does the source give for `Cn1ccnc1-c1ccncc1NC(=O)c1c(N)nn2cc(F)cnc12` [I-C-55, 2-amino-6-fluoro-N-(4-(1-methyl-1H-imidazol-2-yl)pyridin-3-yl)pyrazolo[1,5-a]pyrimidine-3-carboxamide] here?
A: + (Compounds with a Cisplatin sensitization value >0.2 μM but <5 μM are marked with “+.”)

Q: With `Cn1cncc1-c1ccncc1NC(=O)c1c(N)nn2cc(F)cnc12` [I-C-56, 2-amino-6-fluoro-N-(4-(1-methyl-1H-imidazol-5-yl)pyridin-3-yl)pyrazolo[1,5-a]pyrimidine-3-carboxamide] as the molecule, how does the “Cisplatin Sensitization Assay” value read?
A: +++ (Compounds with a Cisplatin sensitization value of <0.02 μM are marked with “+++.”)

Q: For `Cn1nccc1-c1ccncc1NC(=O)c1c(N)nn2cc(F)cnc12` [I-C-57, 2-amino-6-fluoro-N-(4-(1-methyl-1H-pyrazol-5-yl)pyridin-3-yl)pyrazolo[1,5-a]pyrimidine-3-carboxamide], which “Cisplatin Sensitization Assay” value is on record?
A: +++ (Compounds with a Cisplatin sensitization value of <0.02 μM are marked with “+++.”)

Q: How did the “Cisplatin Sensitization Assay” value turn out when `Cn1c(-c2ccncc2NC(=O)c2c(N)nn3cc(F)cnc23)cccc1=O` [I-C-58, 2-amino-6-fluoro-N-(1-methyl-6-oxo-1,6-dihydro-[2,4′-bipyridin]-3′-yl)pyrazolo[1,5-a]pyrimidine-3-carboxamide] was run?
A: +++ (Compounds with a Cisplatin sensitization value of <0.02 μM are marked with “+++.”)

Q: How did the “Cisplatin Sensitization Assay” value turn out when `Cn1cc(-c2ccncc2NC(=O)c2c(N)nn3cc(F)cnc23)ccc1=O` [I-C-59, 2-amino-6-fluoro-N-(1-methyl-6-oxo-1,6-dihydro-[3,4′-bipyridin]-3′-yl)pyrazolo[1,5-a]pyrimidine-3-carboxamide] was run?
A: ++ (Compounds with a Cisplatin sensitization value >0.02 μM but <0.2 μM are marked with “++.”)

Q: `Nc1nn2cc(F)cnc2c1C(=O)Nc1cnccc1-c1ccccn1` [I-C-60, N-([2,4′-bipyridin]-3′-yl)-2-amino-6-fluoropyrazolo[1,5-a]pyrimidine-3-carboxamide] was tested. Which “Cisplatin Sensitization Assay” value did it give?
A: ++ (Compounds with a Cisplatin sensitization value >0.02 μM but <0.2 μM are marked with “++.”)

Q: `CS(=O)(=O)c1ccc(-c2ccncc2NC(=O)c2c(N)nn3cc(F)cnc23)cc1` [I-C-61, 2-amino-6-fluoro-N-(4-(4-(methylsulfonyl)phenyl)pyridin-3-yl)pyrazolo[1,5-a]pyrimidine-3-carboxamide] was tested. Which “Cisplatin Sensitization Assay” value did it give?
A: +++ (Compounds with a Cisplatin sensitization value of <0.02 μM are marked with “+++.”)

Q: For `Cc1nccnc1-c1ccncc1NC(=O)c1c(N)nn2cc(F)cnc12` [I-C-62, 2-amino-6-fluoro-N-(4-(3-methylpyrazin-2-yl)pyridin-3-yl)pyrazolo[1,5-a]pyrimidine-3-carboxamide], which “Cisplatin Sensitization Assay” value is on record?
A: ++ (Compounds with a Cisplatin sensitization value >0.02 μM but <0.2 μM are marked with “++.”)

Q: With `Cc1nn(C)cc1-c1ccncc1NC(=O)c1c(N)nn2cc(F)cnc12` [I-C-63, 2-amino-N-(4-(1,3-dimethyl-1H-pyrazol-4-yl)pyridin-3-yl)-6-fluoropyrazolo[1,5-a]pyrimidine-3-carboxamide] as the molecule, how does the “Cisplatin Sensitization Assay” value read?
A: +++ (Compounds with a Cisplatin sensitization value of <0.02 μM are marked with “+++.”)

Q: `Nc1nn2cc(F)cnc2c1C(=O)Nc1cnccc1-c1ccc(S(=O)(=O)N2CCC2)cc1` [I-C-64, 2-amino-N-(4-(4-(azetidin-1-ylsulfonyl)phenyl)pyridin-3-yl)-6-fluoropyrazolo[1,5-a]pyrimidine-3-carboxamide] was tested. Which “Cisplatin Sensitization Assay” value did it give?
A: +++ (Compounds with a Cisplatin sensitization value of <0.02 μM are marked with “+++.”)

Q: How did the “Cisplatin Sensitization Assay” value turn out when `Cn1ncnc1-c1ccncc1NC(=O)c1c(N)nn2cc(F)cnc12` [I-C-65, 2-amino-6-fluoro-N-(4-(1-methyl-1H-1,2,4-triazol-5-yl)pyridin-3-yl)pyrazolo[1,5-a]pyrimidine-3-carboxamide] was run?
A: ++ (Compounds with a Cisplatin sensitization value >0.02 μM but <0.2 μM are marked with “++.”)

Q: For `CN1CCOC[C@@H]1c1ccc(-c2ccncc2NC(=O)c2c(N)nn3cc(F)cnc23)cc1` [I-C-66, (S)-2-amino-6-fluoro-N-(4-(4-(4-methylmorpholin-3-yl)phenyl)pyridin-3-yl)pyrazolo[1,5-a]pyrimidine-3-carboxamide], which “Cisplatin Sensitization Assay” value is on record?
A: +++ (Compounds with a Cisplatin sensitization value of <0.02 μM are marked with “+++.”)

Q: `Cc1cncnc1-c1ccncc1NC(=O)c1c(N)nn2cc(F)cnc12` [I-C-67, 2-amino-6-fluoro-N-(4-(5-methylpyrimidin-4-yl)pyridin-3-yl)pyrazolo[1,5-a]pyrimidine-3-carboxamide] was tested. Which “Cisplatin Sensitization Assay” value did it give?
A: ++ (Compounds with a Cisplatin sensitization value >0.02 μM but <0.2 μM are marked with “++.”)

Q: How did the “Cisplatin Sensitization Assay” value turn out when `Cn1ccc(-c2ccncc2NC(=O)c2c(N)nn3cc(F)cnc23)n1` [I-C-68, 2-amino-6-fluoro-N-(4-(1-methyl-1H-pyrazol-3-yl)pyridin-3-yl)pyrazolo[1,5-a]pyrimidine-3-carboxamide] was run?
A: + (Compounds with a Cisplatin sensitization value >0.2 μM but <5 μM are marked with “+.”)

Q: `CC(=O)N1CCC(c2ccncc2NC(=O)c2c(N)nn3cc(F)cnc23)CC1` [I-C-69, N-(4-(1-acetylpiperidin-4-yl)pyridin-3-yl)-2-amino-6-fluoropyrazolo[1,5-a]pyrimidine-3-carboxamide] was tested. Which “Cisplatin Sensitization Assay” value did it give?
A: +++ (Compounds with a Cisplatin sensitization value of <0.02 μM are marked with “+++.”)

Q: With `Nc1nn2cc(F)cnc2c1C(=O)Nc1cnccc1C1CCN(C(=O)C2CC2)CC1` [I-C-70, 2-amino-N-(4-(1-(cyclopropanecarbonyl)piperidin-4-yl)pyridin-3-yl)-6-fluoropyrazolo[1,5-a]pyrimidine-3-carboxamide] as the molecule, how does the “Cisplatin Sensitization Assay” value read?
A: +++ (Compounds with a Cisplatin sensitization value of <0.02 μM are marked with “+++.”)

Q: With `N#CC1(C(=O)N2CCC(c3ccncc3NC(=O)c3c(N)nn4cc(F)cnc34)CC2)CC1` [I-C-71, 2-amino-N-(4-(1-(1-cyanocyclopropanecarbonyl)piperidin-4-yl)pyridin-3-yl)-6-fluoropyrazolo[1,5-a]pyrimidine-3-carboxamide] as the molecule, how does the “Cisplatin Sensitization Assay” value read?
A: +++ (Compounds with a Cisplatin sensitization value of <0.02 μM are marked with “+++.”)

Q: Which “Cisplatin Sensitization Assay” value does the source give for `Cn1nncc1-c1ccncc1NC(=O)c1c(N)nn2cc(F)cnc12` [I-C-72, 2-amino-6-fluoro-N-(4-(1-methyl-1H-1,2,3-triazol-5-yl)pyridin-3-yl)pyrazolo[1,5-a]pyrimidine-3-carboxamide] here?
A: +++ (Compounds with a Cisplatin sensitization value of <0.02 μM are marked with “+++.”)

Q: With `CN1CCC(c2ccncc2NC(=O)c2c(N)nn3cc(F)cnc23)CC1=O` (stereo not drawn) [I-C-73, 2-amino-6-fluoro-N-(4-(1-methyl-2-oxopiperidin-4-yl)pyridin-3-yl)pyrazolo[1,5-a]pyrimidine-3-carboxamide] as the molecule, how does the “Cisplatin Sensitization Assay” value read?
A: ++ (Compounds with a Cisplatin sensitization value >0.02 μM but <0.2 μM are marked with “++.”)

Q: How did the “Cisplatin Sensitization Assay” value turn out when `Cn1ccc2c(NC(=O)c3c(N)nn4cc(F)cnc34)cncc21` [I-C-74, 2-amino-6-fluoro-N-(1-methyl-1H-pyrrolo[2,3-c]pyridin-4-yl)pyrazolo[1,5-a]pyrimidine-3-carboxamide] was run?
A: + (Compounds with a Cisplatin sensitization value >0.2 μM but <5 μM are marked with “+.”)
